Measurements published in patent US11219607B2, “Methods for suppressing cancer-related cachexia” (Ohio State Innovation Foundation, priority 2013, dated 2022).

Tests used:
C-26 tumor-bearing mice = experiment: Survival and body weight comparison of HDAC inhibitors, C-26 model; assay type: in vivo, CD2F1 mice; settings: day 21, 50 mg/kg every other day orally from day 6
Method: In one aspect, tumors were established by subcutaneous injection of C-26 cells (0.5×10^6 cells in 0.1 ml) into the right flank of male CD2F1 mice (approximately 6 weeks of age; Harlan Laboratories, Indianapolis, Ind.)(11). Tumor-bearing mice, as well as tumor-free mice serving as non-cachectic controls, were randomized into groups that were treated with either AR-42 (50 mg/kg, p.o. by gavage, every other day; Arno Therapeutics, Inc., Flemington, N.J.) or vehicle (0.5% methylcellulose (w/v) and 0.1% Tween-80 (v/v) in sterile water) starting 6 days after cell injection. To investigate the effect of delayed treatment, treatments with drug and/or vehicle were started 6, 10 and 12 days after cancer cell injection.
In another aspect, the effects of AR-42 were compared to other HDAC inhibitors. […]
The effects of AR-42 were compared to other HDAC inhibitors (i.e., vorinostat and romidepsin) in C-26 tumor-bearing mice. Starting on day 6 after tumor cell injection, mice were treated continuously with AR-42 (50 mg/kg every other day, orally), vorinostat [50 mg/kg once daily, orally (13)], romidepsin [0.6 mg/kg twice weekly, i.p. (14)], or vehicle, until weight loss, as determined by daily body weight measurements and subtraction of tumor mass, reached 20% of starting weight. […]

[1] = system: leukemia inhibitory factor (LIF); experiment: Serum cytokine profiling, C-26 model: LIF; assay type: in vivo, CD2F1 mice; settings: C-26 tumor-bearing mice, day 17; tumor-bearing/vehicle 19.7±9.3, tumor-free/vehicle 1.7±1.5
From the text: Gastrocnemius muscles and sera were collected at day 17 post-cell injection from each treatment group (n=8/group). Muscle was submitted to Metabolon, Inc. (Durham, N.C.) for metabolomic analysis of 270 metabolic intermediates via proprietary mass spectrometry platforms. Serum was submitted to Eve Technologies (Alberta, Canada) for analysis of 32 cytokines using a mouse cytokine array (32-plex panel).
To shed light onto the mechanism by which AR-42 mediated its anti-cachectic effect, sera and gastrocnemius muscle from vehicle- or AR-42-treated tumor-free and C-26 tumor-bearing mice were used for cytokine profiling analysis and whole transcriptome shotgun sequencing (RNA-seq), respectively.

## CC(C)[C@H](C(=O)Nc1ccc(C(=O)NO)cc1)c1ccccc1 [AR-42, (S)—N-hydroxy-4-(3-methyl-2-phenylbutanamido)benzamide]
C-26 tumor-bearing mice
  cumulative survival (weight loss below 20% of starting weight): 100%
[1]
  serum LIF level: 3.8 ± 1.6 pg/mL
